Measurements reported in PubChem BioAssay (NCI).
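Results reflect a 48-hour exposure of cells in 96-well plates to compound at five concentrations. The concentration for full growth arrest is given as TGI.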

Tests used:
Assay in all cases: inhibition of tumour cell growth, NCI panel, 48 h
786-0 renal = tested on: 786-0 renal
CCRF-CEM leukemia = tested on: CCRF-CEM leukemia
DU-145 prostate = tested on: DU-145 prostate
HCT-116 colon = tested on: HCT-116 colon
HL-60(TB) leukemia = tested on: HL-60(TB) leukemia
HOP-92 NSCLC = tested on: HOP-92 NSCLC
HT29 colon = tested on: HT29 colon
KM12 colon = tested on: KM12 colon
LOX IMVI melanoma = tested on: LOX IMVI melanoma
MCF7 breast = tested on: MCF7 breast
MDA-MB-435 = tested on: MDA-MB-435
NCI-H23 lung = tested on: NCI-H23 lung
NCI-H522 lung = tested on: NCI-H522 lung
NCI/ADR-RES ovarian = tested on: NCI/ADR-RES ovarian
OVCAR-4 ovarian = tested on: OVCAR-4 ovarian
OVCAR-8 ovarian = tested on: OVCAR-8 ovarian
SF-268 CNS = tested on: SF-268 CNS
SK-MEL-2 melanoma = tested on: SK-MEL-2 melanoma
MALME-3M melanoma = tested on: MALME-3M melanoma
NCI-H460 lung = tested on: NCI-H460 lung

| Structure (SMILES) | TGI (786-0 renal) [µM] | TGI (CCRF-CEM leukemia) [µM] | TGI (DU-145 prostate) [µM] | TGI (HCT-116 colon) [µM] | TGI (HL-60(TB) leukemia) [µM] | TGI (HOP-92 NSCLC) [µM] | TGI (HT29 colon) [µM] | TGI (KM12 colon) [µM] | TGI (LOX IMVI melanoma) [µM] | TGI (MCF7 breast) [µM] | TGI (MDA-MB-435) [µM] | TGI (NCI-H23 lung) [µM] | TGI (NCI-H522 lung) [µM] | TGI (NCI/ADR-RES ovarian) [µM] | TGI (OVCAR-4 ovarian) [µM] | TGI (OVCAR-8 ovarian) [µM] | TGI (SF-268 CNS) [µM] | TGI (SK-MEL-2 melanoma) [µM] | TGI (MALME-3M melanoma) [µM] | TGI (NCI-H460 lung) [µM] |
| --- | --- | --- | --- | --- | --- | --- | --- | --- | --- | --- | --- | --- | --- | --- | --- | --- | --- | --- | --- | --- |
| CCN(CC)CC(=O)Nc1c(C(N)=O)nnn1Cc1cc(Cl)c(C(=O)c2ccc(Cl)cc2)c(Cl)c1 | 31.4 | 41.5 | 90.2 | 32.1 | 39.5 | 53.2 | 38.6 | 35.8 | 32.1 | 32.4 | 37.2 | 37.4 | 41.3 | 34.7 | > 100 | 34.7 | 45.5 | 28.4 | – | – |
| CCOP(C)(=O)C(Cc1c[nH]c2ccccc12)C(=O)O (stereo not given) | > 100 | > 100 | > 100 | > 100 | > 100 | > 100 | > 100 | > 100 | – | > 100 | > 100 | – | > 100 | > 100 | – | > 100 | > 100 | > 100 | > 100 | – |
| CC(C)=CCC[C@@H](C)C1=C(O)C(Nc2ccccc2Br)=C(C)C(=O)C1=O | 51.2 | 12.7 | 20.7 | 43.6 | 5.52 | 30.8 | 37 | 32.1 | > 100 | 39.7 | > 65.7 | 31.2 | – | 28.8 | > 100 | 73 | > 50.4 | 41.9 | 26 | > 64.8 |
| OCC(CN1CCCCC1)(CN1CCCCC1)CN1CCCCC1 | > 100 | > 100 | > 100 | > 100 | > 100 | > 100 | > 100 | > 100 | > 100 | > 100 | > 100 | > 100 | > 100 | > 100 | > 100 | > 100 | > 100 | – | > 100 | > 100 |
| CCOC(=O)Cc1nnc2c(-c3ccccc3)nc3ccccc3n12 | > 100 | > 100 | 73.4 | > 100 | > 100 | > 100 | > 100 | > 100 | > 100 | > 100 | > 100 | > 100 | – | > 100 | > 100 | – | 39.7 | 95.2 | > 100 | > 100 |
| COc1cc2cc(C(=O)N3CC(CCl)c4c3cc([N+](=O)[O-])c3ccccc43)[nH]c2c(OC)c1OC (stereo not given) | > 100 | > 100 | > 100 | > 100 | – | > 100 | > 100 | > 100 | > 100 | > 100 | > 100 | > 100 | > 100 | > 78.3 | > 100 | > 100 | > 100 | > 100 | > 100 | > 63.8 |
| COc1cc(/C=C2\C[C@H]3[C@@H]4CC=C5C[C@@H](O)CC[C@]5(C)[C@H]4CC[C@]3(C)[C@H]2O)cc(OC)c1OC | 27.1 | – | > 100 | 24.4 | 23 | 65.8 | 27.6 | 39.4 | 27.3 | > 100 | 87.2 | 58.2 | > 100 | > 100 | 46.2 | > 100 | > 100 | 32.5 | > 100 | > 100 |
| C#CCOC(=O)c1ccccc1O | > 100 | > 100 | > 100 | > 100 | > 100 | > 100 | – | > 100 | > 100 | > 100 | > 100 | > 100 | > 100 | > 100 | > 100 | > 100 | > 100 | > 100 | – | > 100 |
| C/C=C(C)/C=C/CC(C)CCC=C(C)C (stereo not given) | > 100 | > 100 | > 100 | > 100 | > 100 | > 100 | > 100 | > 100 | > 100 | > 100 | > 100 | – | – | > 100 | > 100 | > 100 | – | > 100 | – | > 100 |
| CC(=O)Oc1ccc2c(c1)Oc1cc(C(C)=O)ccc1C21OC(=O)c2ccccc21 (stereo not given) | > 100 | – | > 100 | > 100 | > 100 | > 100 | > 100 | > 100 | > 100 | > 100 | > 100 | > 100 | > 100 | > 100 | > 100 | > 100 | > 100 | > 100 | > 100 | > 100 |
| CC1(c2ccc(F)cc2)CC(c2ccc(F)cc2)=C(C#N)C(=C(C#N)C#N)N1 (stereo not given) | 29.3 | 64.5 | 28.5 | 30.5 | 30.7 | 34.9 | 32.1 | 30.1 | 38.6 | 32.5 | 32 | 36.5 | – | 48.4 | 31.3 | 54 | 37 | 34.4 | 37.2 | 38.2 |
| COc1ccccc1C1SCC(=O)N1c1ccc(-n2c(-c3ccccc3)nc3ccccc3c2=O)cc1 (stereo not given) | > 100 | > 100 | > 100 | > 100 | – | > 100 | > 100 | > 100 | > 100 | > 100 | > 100 | > 100 | > 100 | > 100 | 56.7 | > 100 | > 100 | > 100 | > 100 | > 100 |
| O=c1[nH]nc(Cc2ccccc2)n1/N=C/c1c(O)ccc2ccccc12 | 30.3 | > 100 | > 100 | 45.6 | – | 50.3 | 83.9 | 81.9 | > 100 | > 100 | > 100 | > 100 | 35.5 | 64.2 | 67.1 | 51.9 | 90.6 | > 100 | 50.7 | – |
| CC(C)(C)OC(=O)N(O)[C@@H]1C=C[C@H](n2cnc3c(N)ncnc32)C1 | > 100 | > 100 | > 100 | > 100 | – | > 100 | – | > 100 | > 100 | > 100 | > 100 | > 100 | > 100 | > 100 | > 100 | > 100 | > 100 | > 100 | > 100 | > 100 |
| COc1cc(N=CN(C)C)c2ncccc2c1 | > 100 | > 100 | > 100 | > 100 | > 100 | > 100 | > 100 | – | > 100 | > 100 | > 100 | > 100 | > 100 | > 100 | > 100 | > 100 | > 100 | > 100 | > 100 | – |
| C=CC(Cl)(CBr)CCC(Br)=C(C)C (stereo not given) | 67.6 | > 100 | > 100 | 63 | – | 35.2 | 39.8 | 40.7 | 37.8 | 31.5 | 46.7 | 68.5 | 36.8 | 91.2 | 46.6 | 64.6 | 43.3 | 36.8 | 34.5 | 38 |
| CC1=NN(c2nc(N)nc(CCl)n2)CC1 | 23 | 43.3 | > 100 | 87.4 | 40 | 38.7 | > 100 | 55.3 | – | > 100 | > 100 | 41.2 | 4.91 | 74.1 | 32.2 | 48.6 | > 100 | > 100 | – | 48.8 |
| COC(OC)C1OC(CO)C(n2cc(C)c(=O)[nH]c2=O)C1O (stereo not given) | > 100 | > 100 | > 100 | > 100 | – | > 100 | > 100 | > 100 | > 100 | > 100 | > 100 | > 100 | > 100 | > 100 | > 100 | > 100 | > 100 | > 100 | > 100 | > 100 |
| Cc1nc(C)c(C(=O)NNC(=O)Cc2ccccc2)cc1C(=O)NNC(=O)Cc1ccccc1 | > 100 | > 100 | > 100 | > 100 | > 100 | > 100 | > 100 | > 100 | > 100 | > 100 | > 100 | > 100 | > 100 | > 100 | > 100 | > 100 | > 100 | > 100 | – | > 100 |
| COc1ccc2cc(C(C)C(O)c3cc(F)c(F)c(F)c3F)ccc2c1 (stereo not given) | > 100 | > 100 | > 100 | > 100 | > 100 | > 100 | > 100 | – | > 100 | > 100 | > 100 | > 100 | – | > 100 | > 100 | > 100 | > 100 | – | > 100 | > 100 |
